Test results reported in PMC7132963, “NTP42, a novel antagonist of the thromboxane receptor, attenuates experimentally induced pulmonary arterial hypertension” (BMC Pulmonary Medicine, 2020).

Target: T1, TPβ isoform of the human T Prostanoid receptor (thromboxane receptor, TP) (Homo sapiens, UniProt P21731)
T1 construct: gene TBXA2R; TPβ isoform, stably over-expressed in HEK 293 cells (HEK.TPβ line)
T1 sequence (P21731 1-328 limits assumed): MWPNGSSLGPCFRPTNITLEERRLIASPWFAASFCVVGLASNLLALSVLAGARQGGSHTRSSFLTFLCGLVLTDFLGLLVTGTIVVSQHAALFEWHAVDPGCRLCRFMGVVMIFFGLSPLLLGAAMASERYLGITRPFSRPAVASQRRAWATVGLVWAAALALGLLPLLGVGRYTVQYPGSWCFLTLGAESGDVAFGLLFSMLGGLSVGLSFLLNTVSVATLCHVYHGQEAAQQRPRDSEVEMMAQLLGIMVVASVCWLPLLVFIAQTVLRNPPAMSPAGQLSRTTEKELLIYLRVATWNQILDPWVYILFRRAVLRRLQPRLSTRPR
Assay: antagonism of U46619-stimulated intracellular calcium mobilization in HEK.TPβ cells (also vs 8-iso-PGF2α, IC50 […])
Format: cell-based

For `CC(C)(C)NC(=O)NS(=O)(=O)c1cc(C#N)ccc1Oc1cccc(-c2ccc(OC(F)F)cc2)c1` [NTP42], the IC50 was 8.86 ± 3.07 nM.
